According to ChEMBL document CHEMBL3046110, “Screening and evaluation of thiourea derivatives for their HIV capsid and human cyclophilin A inhibitory activity” (Med Chem Res, 2011):

Tests used:
[1] = system: Simian immunodeficiency virus; test: Antiviral activity against Simian immunodeficiency virus infected CEM174 cells assessed as inhibition of virus-induced syncytium after 5 days by microscopic analysis; format: functional, organism-based; conditions: CEM174, 120 h
[2] = Toxicity index, ratio of TC50 for human CEM174 cells to EC50 for Simian immunodeficiency virus; format: cell-based; conditions: read-out: TI
[3] = molecular target: Structural capsid protein (Human immunodeficiency virus 1) (UniProt Q76129); test: Inhibition of Human immunodeficiency virus 1 capsid protein expressed in Escherichia coli BL21(DE3) assessed as capsid assembly rate measured every 5 secs by spectrofluorometric analysis (reference value: 51.88 x 10^-5 OD/s)
Structural capsid protein (Human immunodeficiency virus 1), sequence (Q76129 as listed by the source): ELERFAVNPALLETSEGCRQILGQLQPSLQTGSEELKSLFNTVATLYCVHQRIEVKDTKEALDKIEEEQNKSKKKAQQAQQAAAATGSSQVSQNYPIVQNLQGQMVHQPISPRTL

[4] = molecular target: T1, Peptidyl-prolyl cis-trans isomerase A (Homo sapiens, UniProt P62937); test: Inhibition of Homo sapiens (human) cyclophilin A PPIase activity expressed in Escherichia coli BL21(DE3) using Suc-AAPF-pNA as substrate measured after 6 secs for 20 secs by spectrophotometric analysis
T1 sequence (P62937 whole entry): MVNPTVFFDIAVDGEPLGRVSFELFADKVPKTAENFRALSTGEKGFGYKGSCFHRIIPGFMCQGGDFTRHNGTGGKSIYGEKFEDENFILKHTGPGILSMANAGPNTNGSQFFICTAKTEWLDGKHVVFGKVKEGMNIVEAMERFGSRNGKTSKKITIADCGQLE

[5] = molecular target: T1, Peptidyl-prolyl cis-trans isomerase A; test: Binding affinity to Homo sapiens (human) cyclophilin A expressed in Escherichia coli BL21(DE3) by fluorescence titration assay
[6] = Cytotoxicity against Homo sapiens (human) CEM174 by MTT assay; conditions: CEM174 cells, read-out: TC50 (the source's name)

SMILES | EC50 [1] | selectivity ratio [2] | Activity [3] | IC50 ([4]; read-out: IC50) | Kd [5] | CC50 [6] | IC50 [4]
Cc1cc(NS(=O)(=O)c2ccc(NC(=S)Nc3cccc(Br)c3)cc2)no1 | 0.9 µM | 66 | 15.8 ×10⁻⁵ OD/s |  |  |  | 
COc1ccc(NC(=S)Nc2ccc3c(c2)C(=O)OC3)cc1 | 9.7 µM | 20 |  | 0.92 µM |  |  | 
Cc1ccc(NC(=O)NCCSCc2ccc(CN(C)C)o2)cc1Cl |  |  | 26.5 ×10⁻⁵ OD/s |  |  |  | 
CCN(CC)c1nc(C)c([N+](=O)[O-])c(NC(=S)Nc2cccc(Br)c2)n1 | 7.4 µM | 3.5 |  | 0.81 µM | 79.3 µM | 26.2 µM | 
O=C1OCc2ccc(NC(=S)Nc3ccccc3)cc21 | 1.3 µM | 28 | 25.5 ×10⁻⁵ OD/s |  |  | 36.3 µM | 
O=S(=O)(Nc1nccs1)c1ccc(NC(=S)Nc2ccc(Cl)cc2)cc1 | 0.7 µM | 3 |  |  |  |  | 
CCN(CC)c1nc(C)c([N+](=O)[O-])c(NC(=S)Nc2ccc(C)c(Cl)c2)n1 | 6.3 µM | > 14.1 |  | 0.74 µM | 73.3 µM | > 100 µM | 
Cc1cc(NS(=O)(=O)c2ccc(NC(=S)Nc3ccc(Cl)cc3)cc2)no1 | 4.1 µM | 9 | 14.7 ×10⁻⁵ OD/s |  |  |  | 
CCN(CC)c1nc(C)c([N+](=O)[O-])c(NC(=S)Nc2ccc(Cl)cc2)n1 | 12 µM | > 8.33 | 48.9 ×10⁻⁵ OD/s |  |  | > 100 µM | 
Cc1ccc(NS(=O)(=O)c2ccc(NC(=S)Nc3ccc(Cl)cc3)cc2)cc1 | 4.1 µM | 19 | 13.3 ×10⁻⁵ OD/s |  |  | 77.5 µM | 
Cc1cc(NS(=O)(=O)c2ccc(NC(=S)Nc3ccc(C)c(Cl)c3)cc2)no1 | 0.6 µM | 127 | 18.4 ×10⁻⁵ OD/s |  |  |  | 
Cc1ccc(NC(=S)Nc2ccc3c(c2)C(=O)OC3)cc1Cl | 4.6 µM | 4 | 9.9 ×10⁻⁵ OD/s |  |  |  | 
CCN(CC)c1nc(C)cc(NC(=S)Nc2cccc(Br)c2)n1 | 5.5 µM | > 1.5 |  |  | 200 µM | 8.4 µM | Not Active
Cc1cc(NS(=O)(=O)c2ccc(NC(=S)Nc3ccccc3C)cc2)no1 | 6.2 µM | 8 |  |  |  |  | 
Cc1cccc(NC(=S)Nc2ccc3c(c2)C(=O)OC3)c1 | 11.6 µM | 1 | 32.7 ×10⁻⁵ OD/s |  |  |  | Not Active
O=C1OCc2ccc(NC(=S)Nc3cccc(F)c3)cc21 | 6.3 µM | 10 |  | 0.74 µM |  |  | 
CCN(CC)c1nc(C)c([N+](=O)[O-])c(NC(=S)Nc2cccc(F)c2)n1 | 3.8 µM | > 26.3 | 20.7 ×10⁻⁵ OD/s |  |  | > 100 µM | 
Cc1cc(NS(=O)(=O)c2ccc(NC(=S)Nc3cccc(Cl)c3)cc2)no1 | 1 µM | 92 | 7.97 ×10⁻⁵ OD/s |  |  |  | 
Cc1cc(NS(=O)(=O)c2ccc(NC(=S)Nc3cccc(F)c3)cc2)no1 | 11.6 µM | 8 | 38.5 ×10⁻⁵ OD/s | 0.88 µM |  |  | 
COc1ccc(NC(=S)Nc2ccc(S(=O)(=O)Nc3cc(C)on3)cc2)cc1 | 1.5 µM | 27 | 20.2 ×10⁻⁵ OD/s |  |  |  | 
CCN(CC)c1nc(C)c([N+](=O)[O-])c(NC(=S)Nc2cccc(Cl)c2)n1 | 3.7 µM | 8.6 | 21.2 ×10⁻⁵ OD/s |  |  | 31.5 µM | 
